{
  "source": "patent US9451764B2",
  "about": "“Composition comprising insecticide-wax particles” (priority 2010, dated 2016)",
  "tested_on": "Blattella germanica",
  "assay": "Activity of different insecticides on timber, cement and tile",
  "assay_type": "in vivo",
  "excerpt": "Example e) illustrates that other active ingredients as well can be used successfully in the context of this invention (as a diluted suspension concentration, i.e. as a spraying liquor of the invention). In addition to deltamethrin, both bendiocarb and beta-cyfluthrin and cyfluthrin can be encapsulated.",
  "key": {"[1]": {"settings": "4 mg/m^2 (reduced concentration), Cement"}, "[2]": {"settings": "4 mg/m^2 (reduced concentration), Tile"}, "[3]": {"settings": "4 mg/m^2 (reduced concentration), Timber"}, "[4]": {"settings": "12.5 mg/m^2 (standard concentration), Cement, 30-minute exposure"}, "[5]": {"settings": "12.5 mg/m^2 (standard concentration), Tile, 30-minute exposure"}, "[6]": {"settings": "12.5 mg/m^2 (standard concentration), Timber, 30-minute exposure"}, "[7]": {"settings": "50 mg/m^2 (reduced concentration), Cement"}, "[8]": {"settings": "50 mg/m^2 (reduced concentration), Tile"}, "[9]": {"settings": "100 mg/m^2 (standard concentration), Cement, 30-minute exposure"}, "[10]": {"settings": "100 mg/m^2 (standard concentration), Tile, 30-minute exposure"}, "[11]": {"settings": "8 mg/m^2 (reduced concentration), Cement"}, "[12]": {"settings": "8 mg/m^2 (reduced concentration), Tile"}, "[13]": {"settings": "8 mg/m^2 (reduced concentration), Timber"}, "[14]": {"settings": "25 mg/m^2 (standard concentration), Cement, 30-minute exposure"}, "[15]": {"settings": "25 mg/m^2 (standard concentration), Tile, 30-minute exposure"}, "[16]": {"settings": "25 mg/m^2 (standard concentration), Timber, 30-minute exposure"}},
  "data": [
    {"smiles": "CC1(C)C(C=C(Cl)Cl)C1C(=O)OC(C#N)c1ccc(F)c(Oc2ccccc2)c1", "note": "(stereo not drawn) [Beta-cyfluthrin, beta-cyfluthrin]", "values": [
      {"measurement": "Knockdown after 1 h", "setting": "[1]", "result": 100, "unit": "%"},
      {"measurement": "Mortality after 24 h", "setting": "[1]", "result": 100, "unit": "%"},
      {"measurement": "Knockdown after 1 h", "setting": "[2]", "result": 100, "unit": "%"},
      {"measurement": "Mortality after 24 h", "setting": "[2]", "result": 100, "unit": "%"},
      {"measurement": "Knockdown after 1 h", "setting": "[3]", "result": 100, "unit": "%"},
      {"measurement": "Mortality after 24 h", "setting": "[3]", "result": 100, "unit": "%"},
      {"measurement": "Knockdown after 1 h", "setting": "[4]", "result": 100, "unit": "%"},
      {"measurement": "Mortality after 24 h", "setting": "[4]", "result": 100, "unit": "%"},
      {"measurement": "Knockdown after 1 h", "setting": "[5]", "result": 100, "unit": "%"},
      {"measurement": "Mortality after 24 h", "setting": "[5]", "result": 100, "unit": "%"},
      {"measurement": "Knockdown after 1 h", "setting": "[6]", "result": 100, "unit": "%"},
      {"measurement": "Mortality after 24 h", "setting": "[6]", "result": 100, "unit": "%"}
    ]},
    {"smiles": "CC1(C)[C@H](C(=O)O[C@H](C#N)c2cccc(Oc3ccccc3)c2)[C@@H]1C=C(Br)Br", "note": "[Deltamethrin, deltamethrin]", "values": [
      {"measurement": "Knockdown after 1 h", "setting": "[1]", "result": 100, "unit": "%"},
      {"measurement": "Mortality after 24 h", "setting": "[1]", "result": 100, "unit": "%"},
      {"measurement": "Knockdown after 1 h", "setting": "[2]", "result": 100, "unit": "%"},
      {"measurement": "Mortality after 24 h", "setting": "[2]", "result": 100, "unit": "%"},
      {"measurement": "Knockdown after 1 h", "setting": "[3]", "result": 100, "unit": "%"},
      {"measurement": "Knockdown after 1 h", "setting": "[4]", "result": 100, "unit": "%"},
      {"measurement": "Mortality after 24 h", "setting": "[4]", "result": 100, "unit": "%"},
      {"measurement": "Knockdown after 1 h", "setting": "[5]", "result": 100, "unit": "%"},
      {"measurement": "Mortality after 24 h", "setting": "[5]", "result": 100, "unit": "%"},
      {"measurement": "Knockdown after 1 h", "setting": "[6]", "result": 100, "unit": "%"},
      {"measurement": "mortality at 4 mg/m2", "setting": "Blattella germanica, 24 h, 4 mg/m^2 (reduced concentration), Timber, read-out: Mortality after 24 h", "result": 100, "unit": "%"},
      {"measurement": "mortality at 12.5 mg/m2", "setting": "Blattella germanica, 12.5 mg/m^2 (standard concentration), Timber, 30-minute exposure, read-out: Mortality after 24 h", "result": 100, "unit": "%"}
    ]},
    {"smiles": "CNC(=O)Oc1cccc2c1OC(C)(C)O2", "note": "[Bendiocarb, bendiocarb]", "values": [
      {"measurement": "Knockdown after 1 h", "setting": "[7]", "result": 90, "unit": "%"},
      {"measurement": "Mortality after 24 h", "setting": "[7]", "result": 100, "unit": "%"},
      {"measurement": "Knockdown after 1 h", "setting": "[8]", "result": 100, "unit": "%"},
      {"measurement": "Mortality after 24 h", "setting": "[8]", "result": 100, "unit": "%"},
      {"measurement": "Knockdown after 1 h", "setting": "50 mg/m^2 (reduced concentration), Timber", "result": 50, "unit": "%"},
      {"measurement": "Knockdown after 1 h", "setting": "[9]", "result": 100, "unit": "%"},
      {"measurement": "Mortality after 24 h", "setting": "[9]", "result": 100, "unit": "%"},
      {"measurement": "Knockdown after 1 h", "setting": "[10]", "result": 100, "unit": "%"},
      {"measurement": "Mortality after 24 h", "setting": "[10]", "result": 100, "unit": "%"},
      {"measurement": "Knockdown after 1 h", "setting": "100 mg/m^2 (standard concentration), Timber, 30-minute exposure", "result": 60, "unit": "%"},
      {"measurement": "mortality at 50 mg/m2", "setting": "Blattella germanica, 24 h, read-out: Mortality after 24 h", "result": 100, "unit": "%"},
      {"measurement": "mortality at 100 mg/m2", "setting": "Blattella germanica, read-out: Mortality after 24 h", "result": 100, "unit": "%"}
    ]},
    {"smiles": "CC1(C)C(C=C(Cl)Cl)C1C(=O)OC(C#N)c1ccc(F)c(Oc2ccccc2)c1", "note": "(stereo not drawn) [cyfluthrin]", "values": [
      {"measurement": "Knockdown after 1 h", "setting": "[11]", "result": 100, "unit": "%"},
      {"measurement": "Mortality after 24 h", "setting": "[11]", "result": 100, "unit": "%"},
      {"measurement": "Knockdown after 1 h", "setting": "[12]", "result": 100, "unit": "%"},
      {"measurement": "Mortality after 24 h", "setting": "[12]", "result": 100, "unit": "%"},
      {"measurement": "Knockdown after 1 h", "setting": "[13]", "result": 100, "unit": "%"},
      {"measurement": "Mortality after 24 h", "setting": "[13]", "result": 100, "unit": "%"},
      {"measurement": "Knockdown after 1 h", "setting": "[14]", "result": 100, "unit": "%"},
      {"measurement": "Mortality after 24 h", "setting": "[14]", "result": 100, "unit": "%"},
      {"measurement": "Knockdown after 1 h", "setting": "[15]", "result": 100, "unit": "%"},
      {"measurement": "Mortality after 24 h", "setting": "[15]", "result": 100, "unit": "%"},
      {"measurement": "Knockdown after 1 h", "setting": "[16]", "result": 100, "unit": "%"},
      {"measurement": "Mortality after 24 h", "setting": "[16]", "result": 100, "unit": "%"}
    ]}
  ]
}
